Tests used:
[1] = stability of ethanolic solutions of the active agent; assay type: physicochemical
Source text: During investigations regarding the solubility of, in particular, 2-hydroxy-5-methyl-laurophenone oxime, solutions could be prepared which are stable after 4 days at room temperature under the exclusion of UV light. These solutions were ethanolic solutions of the active agent which included further components such as 0.8/1.0 and 2.0% PEG600 or PEG6000. The active agent was present in these solutions in an amount of 10 wt. %. […] These solutions can be incorporated into water in order to prepare topical formulations.

[2] = solubility in different solvents; assay type: physicochemical; conditions: in solvents such as isopropanol, acetone, chloroform, 2-phenylethanol and Triton-X100
Experimental: Numerous studies were conducted in order to obtain optimum compositions of the active agent in which an improvement of solubility and, a prevention of the formation of crystals is achieved. […] Therefore, the carriers must be non-toxic, non-carcinogenic and skin compatible and, furthermore, should be odour neutral. Moreover, these carriers, e.g. solvents or emulsifiers, should be compatible with the major part of the topical composition, i.e. an aqueous phase or an oil phase, and should not form a separate phase or lead to the precipitation of the active agent.

Substance: 2-hydroxy-5-methyl-laurophenone oxime
- formation of crystals ([1]; ethanolic PEG solutions, amount of active agent increased above 10 wt. %): formation of crystals was observed
- stability of solution ([1]; ethanolic solutions with 0.8/1.0 and 2.0% PEG600 or PEG6000, active agent 10 wt. %, 4 days at room temperature under exclusion of UV light): stable
- formation of crystals ([1]; solution of the active agent incorporated into water at 10 to 20 wt. % of the formulation): in some cases the formation of crystals
- solubility [2]: good solubility
